pIC50: −log10 of the molar value. Structures can show the parent of a compound that is named as a salt. Where two headings read alike, the source gives them in different places.

From patent US5861414A, “Piperidineacetic acid derivatives useful as fibrinogen antagonist agent” (priority 1994, dated 1999) come the findings set out here.

For the assay, the system named is human washed and resuspended platelets (HRP). Description: Inhibition of U-46619-induced platelet aggregation in washed human platelets (turbidometric, Born-type aggregometer). It is filed as cell-based. Conditions: read-out: IC50, concentration of the compound required to inhibit platelet aggregation by 50%. The method, then: Inhibition of platelet aggregation by compounds of the invention was determined according to the following procedure. […] The blood was treated with aspirin (0.1 mM) and prostacyclin (0.06 μM) prior to centrifugation (1400 g, 4 minutes, 20° C.). The supernatant platelet-rich plasma (PRP) was isolated and further centrifuged (1400 g, 10 minutes, 20° C.) to sediment the platelets. […] This platelet suspension was centrifuged (1400 g, 8 minutes, 20° C.) and the resultant platelet pellet was resuspended into the physiological salt solution adjusted to pH 7.4. The resultant washed-platelet preparation was diluted to give a final platelet count of […]. […] Platelet aggregation was quantified using a turbidometric method.

Where [1] appears, read: Homo sapiens, Platelet, washed human platelets, 37° C, 5 minutes pre-incubation, agonist 1 μM U-46619, fibrinogen 0.5 mg/ml.

With `O=C(O)CN1CCC(c2nn(Cc3ccc(F)cc3)c3cc(/C=C/C4CCNCC4)ccc23)CC1` [1 (xiii), {4-[1-(4-Fluoro-benzyl)-6-(2-piperidin-4-yl-(E)-vinyl)-1H-indazol-3-yl]-piperidin-1-yl}-acetic acid trifluoroacetate], the pIC50 under setting [1] was 6.90.
Same read-out and setting: with `O=C(O)CN1CCC(c2n[nH]c3cc(/C=C/C4CCNCC4)ccc23)CC1` [2 (ii), {4-[6-(2-Piperidin-4-yl-(E)-vinyl)-1H-indazol-3-yl]-piperidin-1-yl}-aceticacid trifluoroacetate] the figure was 7.04.
Consider `O=C(O)CN1CCC(c2n[nH]c3cc(/C=C/C4CCNCC4)ccc23)CC1` [2 (iv), {4-[6-(2-Piperidin-4-yl-(E)-vinyl)-1H-indazol-3-yl]-piperidin-1-yl}-aceticacid, hydrochloride hydrate], for which, for the setting “Homo sapiens, Platelet”, the pIC50 is 7.17.
For the compound `O=C(O)CN1CCC(c2nn(Cc3ccc(Cl)c(Cl)c3)c3cc(/C=C/C4CCNCC4)ccc23)CC1` [3 (ii), {4-[1-(3,4-Dichloro-benzyl)-6-(2-piperidin-4-yl-(E)-vinyl)-1H-indazol-3-yl]-piperidin-1-yl}-acetic acid trifluoroacetate], the pIC50 under setting [1] is 7.13.
Take `O=C(O)CN1CCC(c2nn(Cc3ccc(Cl)cc3)c3cc(/C=C/C4CCNCC4)ccc23)CC1` [4 (ii), (4-{1-(4-Chloro-benzyl)-6-[2-piperidin-4-yl-(E)-vinyl]-1H-indazol-3-yl}-piperidin-1-yl)-acetic acid trifluoroacetate]: the pIC50 under setting [1] was 7.14.
On to `O=C(O)CN1CCC(c2nn(Cc3ccc(Cl)cc3)c3cc(CCC4CCNCC4)ccc23)CC1` [5 (iii), {4-[1-(4-Chloro-benzyl)-6-(2piperidin-4-yl-ethyl)-1H-indazol-3-yl-piperidin-1-yl}-acetic acid trifluoroacetate], for which the pIC50 under setting [1] is 7.10.
Consider `O=C(O)CN1CCC(c2nn(Cc3ccc(F)cc3)c3cc(/C=C/C4CCNCC4)ccc23)CC1` [6 (ii), {4-[1-(4-Fluoro-benzyl)-6-(2-piperidin-4-yl-(E)-vinyl)-1H-indazol-3-yl]-piperidin-1-yl}-acetic acid hydrochloride], for which the pIC50 (washed human platelets, 37° C, 5 minutes pre-incubation, agonist 1 μM U-46619, fibrinogen 0.5 mg/ml, hydrochloride) is 6.96.
In the case of `O=C(O)CN1CCC(c2nn(Cc3ccccc3)c3cc(/C=C/C4CCNCC4)ccc23)CC1` [7 (ii), {4-[1-Benzyl-6-(2-piperidin-4-yl-(E)-vinyl)-1H-indazol-3-yl]-piperidin-1-yl}-acetic acid trifluoroacetate], the pIC50 under setting [1] was 6.97.
